Experimental data taken from US9273043B2, “TRPV1 antagonists including dihydroxy substituent and uses thereof” (Purdue Pharma L.P., priority 2011, dated 2016).

Experiments:
Format in all cases: cell-based
[1] = molecular target: T1, human TRPV1 (Homo sapiens (Human), UniProt Q8NER1); assay: Capsaicin-based assay, Protocol 2, TRPV1/CHO cells (hCAP-CHO), Fluo-4 FLIPR; conditions: 100 nM capsaicin, mean ± SEM
Outline: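 CHO cells stably transfected with human TRPV1 cDNA (G418-selected) were loaded with 3 μM Fluo-4 for 1 h, washed, then read on FLIPR with 15 s baseline before additions. Compound tested at final 100 μM to 1.5625 μM against capsaicin stimulation; calcium fluorescence time course curve-fitted.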

[2] = molecular target: T1, human TRPV1; assay: Human TRPV1 heat-based assay, hTRPV1/CHO cells (hHeat-CHO); conditions: temperature ramp 25 to 45 °C, mean ± SEM
Procedure: Human TRPV1 Heat-based Assay:
CHO cells stably expressing human TRPV1 (hTRPV1) were used. Functional assessment of heat-induced activation of hTRPV1 was carried out in a cell-based Ca^2+ flux assay using ABI7500 Fast Real-Time PCR System as described in Reubish et al., “Functional assessment of temperature-gated ion-channel activity using a real-time PCR machine,” www.BioTechniques.com 47(3):iii-ix (2009), which is hereby incorporated by reference. Briefly, hTRPV1/CHO cells were cultured in growth media in a tissue culture dish at 37° C. in a CO2 incubator. On the day of the assay, culture media were removed and the cells were then detached using 0.05% trypsin at 37° C. with 5% CO2, for 90 s. The detached cells were centrifuged (1000 rpm, 4 min) to remove trypsin-containing supernatant and resuspended in assay buffer (115 mM NaCl, 5.4 mM KCl, 0.8 mM MgCl2.6H2O, 1.8 mM CaCl2.2H2O, 13.8 mM D-glucose, and 20 mM HEPES). Then, the cells were loaded with 5 μM Fluo-4, a Ca^2+ reporter dye, in the presence of 2.5 mM probenecid at 37° C. with 5% CO2, for 45 min. Thereafter, the cells were washed twice with measuring buffer (assay buffer supplemented with 0.1% BSA and 3.2 mM CaCl2) then transferred to a Fast 96-well Reaction Plate (0.1 mL) (Part no. 4346907, MICROAMP, Applied Biosystems, Foster City, Calif.). The cell density was 100,000 cells/24 μL/well. A solution of the compound under test (6 μL/well) was added into each well of the 96-well plate. Thus, the reaction volume per well was 30 μL.
The plates were then placed inside an ABI7500 Fast Real-Time PCR instrument (Applied Biosystems) to read fluorescence at different temperatures using 7500 software, version 2.0.2 (Applied Biosystems). The initial temperature was set at 25° C. for 1 min. followed by a temperature ramp to 45° C. in 100 s to deliver heat to cells. [Ca^2+], response of hTRPV1/CHO cells to heat was determined as: [fluorescence read at 45° C.−fluorescence read at 25° C.].
Compound concentration response curves and IC50 values were analyzed using GraphPad Prism 4 software (GraphPad Software, La Jolla, Calif.).
The IC50 data provided in Table 6 are shown as mean±standard error of the mean; the number of trials conducted for each assay is shown in parentheses except for only a single trial where no number of trials is shown in parentheses.

[3] = molecular target: T1, human TRPV1; assay: pH-based assay, Protocol 2, TRPV1/CHO cells (hpH-CHO), Fura-2 Ca2+ influx; conditions: pH 5.0-5.1 (H2SO4), mean ± SEM
Procedure: For Protocol 2, a Chinese Hamster Ovary cell line (CHO) that has been engineered to constitutively express human recombinant TRPV1 was used (TRPV1/CHO cells). The TRPV1/CHO cell line was generated as described below.
TRPV1/CHO cells were seeded in the 96-well clear-bottom black-wall plate (Nunc) at densities of 1-2×10^4 cells/well and grown in 100 μL of culture medium (alpha-MEM supplemented with 10% FBS, 20 mM HEPES, 1 mg/mL geneticin and 1% antibiotic-antimycotic mixed stock solution) for 1-2 days before the experiment.
(1) Culture medium was removed using an 8-channel-pipette (Rainin, USA) from the 96-well plate and the wells were refilled with 100 μL of loading buffer (20 mM HEPES, 115 mM NaCl, 5.4 mM KCl, 0.8 mM MgCl2, 1.8 mM CaCl2, 13.8 mM D-glucose, 2.5 mM probenecid, pH 7.4) containing 5 μM Fura-2 AM (Dojin, Japan).
(2) The 96-well plate was incubated at 37° C. for 45 min.
(3) The loading buffer was removed from each well. The cells were subsequently washed twice with 150 μL of measuring buffer (20 mM HEPES, 115 mM NaCl, 5.4 mM KCl, 0.8 mM MgCl2, 5.0 mM CaCl2, 13.8 mM D-glucose, 0.1% BSA, pH 7.4) (no probenecid). The wells were then refilled with 80 μL of measuring buffer.
(4) After an incubation at 4° C. for 15 min, the 96-well plate was transferred to a model FDSS-3000 plate reader apparatus (Hamamatsu Photonics K.K., Japan).
(5) The Fura-2 fluorescent intensity was monitored at a wavelength of 340 nm and at 380 nm, respectively, at a rate of 0.5 Hz for a total of 240 seconds. After 16 time points (32 sec) of baseline detection, 20 μL of agonist solution was added to each well. The final volume was 100 μL/well.
(6) Fluorescence intensity ratio refers to the fluorescence intensity at 340 nm over the fluorescence intensity at 380 nm at a particular time point. The baseline was set as the average of the fluorescent intensity ratios for the first 16 time points before the addition of agonist solution. The maximum response was the highest fluorescent intensity ratio during the 60 time points following addition of agonist solution.
(7) Maximal signal ratios from each well were calculated as output data using the FDSS-3000 analysis program. Data were analyzed using Excel (Microsoft) and XLfit (idbs) software.
In an “agonist plate,” two different agonist solutions with different H2SO4 concentrations were used for the pH assay (see, e.g., FIG. 3A of U.S. Patent Application Publication No. US 2009/0170868 A1). For the first half of a 96-well plate one agonist solution was used; for the second half the other agonist solution was used. The agonist solutions were obtained by diluting sulfuric acid (1M H2SO4) with measuring buffer. The concentrations for the two agonist solutions were determined as described above in Section 2 of Protocol 2.
The sulfuric acid concentrations between the two agonist solutions differed by 0.5 mM. In the experiment described in Section 2 of Protocol 2, the sulfuric acid concentrations in the agonist solutions were determined to be 16 mM and 16.5 mM, respectively. After 1:4 dilution of the agonist solutions, the final sulfuric acid concentration was 3.2 mM and 3.3 mM, respectively. The resulting pH value for the pH assay was 5.0 to 5.1.
Test compounds were dissolved in DMSO to yield 1 mM stock solutions. The stock solutions were further diluted using DMSO in […] serial dilution steps with 6 points (1000, 250, 62.5, 15.625, 3.9062, and 0.977 μM). The thereby-obtained solutions were further diluted in measuring buffer (1:100) as 10× stock serial dilutions with a DMSO concentration of 1%. 10 μL of a 10× stock was added into each well of an “antagonist plate” (see step 3.3.(4) below). Thus, the final concentrations of antagonists was as follows: 0.977, 3.906, 15.63, 62.5, 250, and 1000 nM containing 0.1% DMSO (see, e.g., FIG. 3B of U.S. Patent Application Publication No. US 2009/0170868 A1).
Steps (1) and (2) of this Assay were the same as steps 2.2.(1) and 2.2.(2), respectively, of Protocol 2. […]

T1 sequence (Q8NER1 whole entry, looked up): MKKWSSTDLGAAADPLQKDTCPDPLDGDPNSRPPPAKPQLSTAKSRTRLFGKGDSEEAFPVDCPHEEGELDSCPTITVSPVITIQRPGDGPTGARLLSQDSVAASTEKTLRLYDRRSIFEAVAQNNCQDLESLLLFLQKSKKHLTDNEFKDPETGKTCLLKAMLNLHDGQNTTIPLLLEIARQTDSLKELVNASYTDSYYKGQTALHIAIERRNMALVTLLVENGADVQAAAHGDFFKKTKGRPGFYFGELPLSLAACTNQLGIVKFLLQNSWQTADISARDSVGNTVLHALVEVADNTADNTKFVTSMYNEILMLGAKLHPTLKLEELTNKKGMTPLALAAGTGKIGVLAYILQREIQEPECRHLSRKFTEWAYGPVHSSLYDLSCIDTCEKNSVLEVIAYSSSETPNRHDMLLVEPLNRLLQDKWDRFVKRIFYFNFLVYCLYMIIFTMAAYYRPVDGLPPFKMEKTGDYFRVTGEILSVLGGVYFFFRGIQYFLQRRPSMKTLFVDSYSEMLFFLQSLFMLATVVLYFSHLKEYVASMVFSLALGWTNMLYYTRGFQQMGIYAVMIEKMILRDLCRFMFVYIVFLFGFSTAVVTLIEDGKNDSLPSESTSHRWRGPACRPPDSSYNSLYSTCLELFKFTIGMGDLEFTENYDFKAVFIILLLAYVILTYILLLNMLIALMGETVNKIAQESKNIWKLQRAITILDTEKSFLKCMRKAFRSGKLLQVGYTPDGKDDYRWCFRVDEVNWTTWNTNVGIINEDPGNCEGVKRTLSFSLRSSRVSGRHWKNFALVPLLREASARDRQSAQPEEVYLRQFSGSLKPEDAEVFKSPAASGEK

Compound | IC50 [1] | IC50 [2] | IC50 [3]
C[C@@H]1CN(c2ncc([C@@H](O)CO)cc2F)CCN1C(=O)Nc1nc2ccccc2s1 [A122(e), (R)—N-(benzo[d]thiazol-2-yl)-4-(5-((R)-1,2-dihydroxyethyl)-3-fluoropyridin-2-yl)-2-methylpiperazine-1-carboxamide] | 80.6 ± 7.5 nM | 96 ± 2.4 nM | 5.8 ± 0.7 nM
C[C@@H]1CN(c2ncc([C@@H](O)CO)cc2F)CCN1C(=O)Nc1nc2ccc(F)cc2s1 [A125(e), (R)-4-(5-((R)-1,2-dihydroxyethyl)-3-fluoropyridin-2-yl)-N-(6-fluorobenzo[d]thiazol-2-yl)-2-methylpiperazine-1-carboxamide] | 23.9 ± 3.8 nM | 18.4 ± 0.8 nM | 0.6 ± 0.2 nM
C[C@H](O)[C@@H](O)c1cnc(N2CCN(C(=O)Nc3nc4ccc(Cl)cc4s3)CC2)c(F)c1 [C123(r), N-(6-chlorobenzo[d]thiazol-2-yl)-4-(5-((1S,2S)-1,2-dihydroxypropyl)-3-fluoropyridin-2-yl)piperazine-1-carboxamide] | 26.9 ± 3.6 nM | 96 ± 14 nM | 20.6 ± 2.6 nM
